Experimental data reported in patent US20060167229A1, “Biologically active peptide conjugates” (priority 2002, published 2006).
Marks after values point to notes of the source that are not given here. Ends that are not written are not given here.

Tests used:
[1] = test system: anti-SRBC antibody; test: Sheep Red Blood Cell (SRBC) hemolysis test, antibody formation; type: in vivo, BALB/c mice; details: for anti-SRBC antibody formation, X ± SD (Unit): healthy mice, SRBC day 12 (IFN-γ, IL-2 3×10^5 IU/kg/day), saline 32 ± 7; for effect on the synthesis of anti-SRBC antibody upon the antigenic challenge (summary): statistically significant difference from saline in any of the dosage groups 0.5-500 μg/kg/day
Experimental: Sheep red blood cells (SRBC) were prepared by collecting blood from cervical vein and put into a sterile flask with glass beads. The flask was shaken for 3 minutes and the blood then mixed with Alsever solution (glucose 2.05 g, NaCl 0.4 g, […] 0.8 g, adjust to 100 ml with distilled water) and stored at 4° C. Immediately before use, samples were centrifuged at 130 g, 5 minutes to collect the SRBC. The cells were washed two times by re-suspension and centrifugation in normal saline. Then the cell pellet was collected by centrifugation at 180 g for 10 minutes and re-suspended in saline to make the final working SRBC suspension, 2% (v/v).
Complement was prepared by adding 10 volumes of fresh Cavy serum into one volume centrifuge packed SRBC, and then gently shaking for 30 minutes at 4° C. The SRBC was removed by centrifugation at 200 g for 10 minutes. 10 volumes of normal saline were added to obtain the working complement solution.
The test substances were administered as described in section 1.1, plus intraperitoneal injection 0.2 ml SRBC per mouse on day 12. On the day after the last test substance administration (day 16), blood was collected from the eye canthus and left at room temperature for one hour for serum exudation. After centrifugation at 200 g for 10 minutes, the serum was diluted by 500 times with normal saline.
To 1 ml diluted mouse serum of each mouse, 0.5 ml SRBC suspension was added. Ice cold. Then 1 ml working complement solution was added and incubated at 37° C. water bath for 10 minutes. Reactions were terminated by ice cold. Samples were then centrifuged at 200 g for 10 minutes to obtain the supernatant.
To 1 ml of this supernatant, 3 ml Drabkin solution was added and left at room temperature for 10 minutes. OD540 nm was obtained.
Reference OD540 nm was obtained by mixing 0.25 ml SRBC suspension with Drabkin solution to 4 ml and placed at room temperature for 10 minutes before OD540 nm was taken.
Sample serum index=(OD540 nm of test sample÷reference OD540 nm)×500

[2] = test system: IL-2; test: T lymphocyte IL-2 secretion test (HT-2 cell bioassay of ConA supernatant); type: in vivo, BALB/c mice; details: for activity of T lymphocyte in secreting IL-2, X ± SD (IU): healthy mice
Experimental: (§1) Spleen cells of density 1×10^6/ml were placed onto a 96 wells cell culture plate, 100 μL/well, three parallel wells each of the assay sample and control sample per mouse. To the assay wells, 100 μl/well ConA of 100 μg/ml in RPMI-1640 was added, and […] plain RPMI-1640 was used for the controls. The cells were incubated for 66 hrs at 37° C., 5% CO2. The cells were then pelleted by centrifugation at 150 g for 10 minutes.
HT-2 cells at log phase were collected by centrifugation at 150 g for 10 minutes, and washed three times with cold Hank's solution by re-suspension and centrifugation. The collected HT-2 cells were re-suspended in RPMI-1640 and incubated at 37° C., 5% CO2 for 30 minutes. The cells were further washed twice with RPMI-1640 by re-suspension and centrifugation, and re-suspended to final concentration of 2×10^5/ml with RPMI-1640.
rIL-2 was diluted to the following concentration with RPMI-1640: 500 IU/ml, 250 IU/ml, 125 IU/ml, 62.5 IU/ml, 31.25 IU/ml, and […].
The plate was incubated at 37° C., 5% CO2 for 68 hours, then centrifuged at 150 g for 15 minutes and the supernatant removed. 100 μl 0.5 mg/ml MTT in RPMI-1640 without phenolsulfonphthalein was added into each well. After shaking for 3-4 minutes to re-suspend the cells, continue to incubate for another 4 hours. Samples were then centrifuged at 150 g for 15 minutes and the supernatant was removed. To each well, 120 μl 40 mM HCl-2-propanol was added, mixed for 3-4 minutes and OD analyzed at 570 nm, referenced at 630 nm with an ELISA plate reader.
The average OD of the three parallel wells of each dilution was taken and plotted against concentration on a semi-log paper, concentration on the X-axis. The concentration at 50% OD saturation was obtained for both the testing supernatant and rIL-2.

[3] = test system: spleen; test: Immunity organ weight test, spleen index; type: in vivo, BALB/c mice; details: for weight of spleen (spleen index), X ± SD (%): healthy mice, peptide 500 μg/kg/day i.p. 15 days, saline 0.53 ± 0.05; for effect on the weight of the spleen (summary): statistically significant difference from saline in any of the dosage groups 0.5-500 μg/kg/day
Experimental: (§2) One day after the last test substance administration (day 16), the liver, spleen, and thymus gland were separated and blotted dry with filter paper and weighed. The phagocytosis index α was calculated as below: α=(^3√{square root over ( )}K)(W÷WLS)
Spleen index (%)=(spleen weight/body weight)×100%

[4] = test system: T lymphocyte; test: T lymphocyte transformation test (ConA-stimulated spleen cells of treated mice, MTT); type: in vivo, BALB/c mice; details: for X ± SD (stimulation index): healthy mice, saline 1.3 ± 0.1; for effect on T lymphocyte transformation (summary): statistically significant difference from saline in any of the dosage groups 0.5-500 μg/kg/day
Experimental: (§3) The above substances were all dissolved in 0.5 ml saline and injected intraperitoneal (i.p.) for 15 continuous days, once per day.
(§4) Ten mice per group. The day after the last test substance administration, the mice were sacrificed by cervical dislocation. The spleen was isolated aseptically and manually dispersed in cold D-Hank's solution using an injection needle. The dispersed cell suspension was further sieved through a 100 gauge 150 μm diameter stainless steel sieve. After centrifugation at 200 g for 10 minutes, the supernatant was discarded. The cell pellet was re-suspended in 10 volume of Tris-NH4Cl buffer and then kept standing still for 10 minutes at room temperature. The suspended cells were collected by centrifugation at 150 g for 10 minutes. The cells were washed 2-4 times with cold D-Hank's solution by re-suspending and collecting by centrifugation with condition as described above. The washed cells were then diluted to the desired cell densities by RPMI-1640 culture medium, containing 10% fetal bovine serum.
as §1
50 μl/well MTT of 1 mg/ml in RPMI-1640 was added to the cell pellet and the cells re-suspended by shaking for 2 minutes. The incubation was continued for 4 hours. The supernatant was discarded after centrifugation at 150 g for 10 minutes. 120 μl 40 mM HCl-2-propanol was added to the cell pellet and shaken for 3 minutes. […]
Each mouse formed three assay wells and three control wells. The Stimulation Index (SI) of each mouse was obtained by first deriving the average OD of the three parallel wells, then dividing the value of the assay wells by the control wells.

[5] = test system: interferon (IFN); parameters: species or system BALB/c mice; details: mouse, in vivo; for activity of T lymphocyte in secreting IFN, X ± SD (IU): ip
[6] = test system: NK cell; test: NK cell cytotoxicity activity test (spleen cells of treated mice against YAC-1 target cells, MTT); type: in vivo, BALB/c mice; details: for NK cell cytotoxic activity, X ± SD (%): healthy mice; for effect on the cytotoxic activity of NK cells (summary): statistically significant difference from saline in any of the dosage groups 0.5-500 μg/kg/day
Experimental: as §3, §4
Mice spleen cells were prepared to 4×10^6/ml as described in section 1.1 above. Target cells YAC-1 were brought to log phase and adjusted to 1×10^5/ml. Using a 96 wells cell culture plate, […] were added to the control well containing only the spleen cells; […] and 100 μl culture medium were added to the control well containing only target cells; 100 μl mouse spleen cells and 100 μl target cells were added to the NK activity assay well. Three parallel sets of the above were prepared per mouse.
Samples were centrifuged at 150 g for 10 minutes to collect the cells. The supernatant was discarded and 50 μl/well MTT of 1 mg/ml was added. The reaction-mixture was then shaken for 2 minutes, and incubated at 37° C., 5% CO2 for 4 hours. The supernatant was discarded after centrifugation at 150 g for 10 minutes. […] 40 mM HCl-2-propanol was added and shaken for 3 minutes. An ELISA reader was used to obtain OD570 nm of each well referenced at 630 nm.

[7] = test system: thymus gland; test: Immunity organ weight test, thymus gland index; type: in vivo, BALB/c mice; details: for weight of thymus gland (thymus gland index), X ± SD (%): healthy mice, saline 0.12 ± 0.02; for effect on the weight of the thymus gland (summary): statistically significant difference from saline in any of the dosage groups 0.5-500 μg/kg/day
Experimental: as §2
Thymus gland index (%)=(thymus weight/body weight)×100%

[8] = test system: mononuclear phagocyte; test: Carbon particle clearance test, phagocytosis function; type: in vivo, BALB/c mice; parameters: key to X ± SD (phagocytotic index): α = cube root of K × (body weight ÷ liver+spleen weight)
Experimental: On the next day after the last test substance administration (day 16), the mice were injected with […] body weight India ink (5 times dilution with normal saline) from the tail vein.
One minute and five minutes after Indian ink injection, 20 μl blood was obtained from the eye canthus with a heparinized tubing. The blood was mixed with 2 ml 0.1% w/v Na2CO3 and then OD680 nm obtained. The outline clear index K was calculated by the following formula: K=(lgA1−lgA2)÷(t2−t1)
as §2

[9] = peptide 5 μg/kg/day i.p. 15 days
[10] = peptide 500 μg/kg/day i.p. 15 days
[11] = statistically significant difference from saline in any of the dosage groups 0.5-500 μg/kg/day
[12] = peptide 5 μg/kg/day i.p. 15 days (IFN-γ, IL-2 3×10^5 IU/kg/day)
[13] = peptide 500 μg/kg/day i.p. 15 days (IFN-γ, IL-2 3×10^5 IU/kg/day)
[14] = peptide 500 μg/kg/day i.p. 15 days (IFN-γ, IL-2 3×10^5 IU/kg/day), saline 63 ± 9
[15] = peptide 0.5 μg/kg/day i.p. 15 days
[16] = peptide 50 μg/kg/day i.p. 15 days

Row | Substance | anti-SRBC antibody formation, X ± SD (Unit) [1, 9] | anti-SRBC antibody formation, X ± SD (Unit) [1, 10] | effect on the synthesis of anti-SRBC antibody upon the antigenic challenge (summary) [1] | weight of spleen (spleen index), X ± SD (%) [3] [%] | effect on the weight of the spleen (summary) [3] | X ± SD (stimulation index) [4, 13] | effect on T lymphocyte transformation (summary) [4] | effect on the secretion of IFN by T lymphocytes (summary) [5] | activity of T lymphocyte in secreting IFN, X ± SD (IU) [5] | NK cell cytotoxic activity, X ± SD (%) [6, 14] [%] | effect on the cytotoxic activity of NK cells (summary) [6] | anti-SRBC antibody formation, X ± SD (Unit) [1, 15] | anti-SRBC antibody formation, X ± SD (Unit) [1, 16] | weight of thymus gland (thymus gland index), X ± SD (%) [7, 12] | effect on the weight of the thymus gland (summary) [7] | other results
1 | Ala Gly Asp Asp Ala Pro Arg Ala Val Phe (AGDDAPRAVF; listed as Sus scrofa) [CMS007] | 122 ± 12*^@^ Unit | 69 ± 17*^@ Unit | enhance | 0.32 ± 0.05 | decrease | 1.6 ± 0.1 | enhance |  |  |  |  |  |  |  |  | activity of T lymphocyte in secreting IL-2, X ± SD (IU) ([2]; peptide 5 μg/kg/day i.p. 15 days (IFN-γ, IL-2 3×10^5 IU/kg/day), saline 37 ± 9): 64 ± 12 IU; activity of T lymphocyte in secreting IL-2, X ± SD (IU) ([2]; peptide 500 μg/kg/day i.p. 15 days (IFN-γ, IL-2 3×10^5 IU/kg/day), saline 39 ± 10): 86 ± 15*^ IU; effect on the secretion of interleukin-2 (IL-2) by T lymphocytes (summary) [2, 11]: enhance; X ± SD (stimulation index) [4, 12]: 1.7 ± 0.1
2 | LRVAPQEHPVL [CMS013] | 93 ± 28*^@ Unit | 80 ± 16*^@ Unit |  | 0.44 ± 0.07 | decrease |  |  | enhance | 154 ± 15*^@^ IU | 84 ± 9 | increase | 7 ± 1 Unit | 70 ± 9*^@ Unit | 0.21 ± 0.05 % | increase | X ± SD (phagocytotic index) ([8]; healthy mice, peptide 5 μg/kg/day i.p. 15 days (IFN-γ, IL-2 3×10^5 IU/kg/day), saline 5.1 ± 0.6): 6.7 ± 0.2; effect on the phagocytotic activity of mononuclear phagocyte (summary) [8, 11]: enhance
3 | MATAASSSSL [CMS021] | 82 ± 30*^@ Unit |  | enhance | 0.36 ± 0.04 | decrease | 1.6 ± 0.1 | enhance | enhance | 143 ± 17*^@^ IU |  | increase | 57 ± 9*^@ Unit | 94 ± 20*^@^ Unit | 0.20 ± 0.06 % | increase | NK cell cytotoxic activity, X ± SD (%) ([6]; peptide 50 μg/kg/day i.p. 15 days (IFN-γ, IL-2 3×10^5 IU/kg/day), saline 56 ± 8): 88 ± 12*^@^ %
4 | Phe Gln Pro Ser Phe (FQPSF; printed: Phe Gln Pro Ser Phe) [CMS028] | 121 ± 48*^@^ Unit |  |  |  |  |  |  | enhance | 96 ± 13 IU | 90 ± 5 | increase | 18 ± 5 Unit |  | 0.28 ± 0.06*^@^ % | increase | NK cell cytotoxic activity, X ± SD (%) ([6]; peptide 0.5 μg/kg/day i.p. 15 days (IFN-γ, IL-2 3×10^5 IU/kg/day), saline 58 ± 7): 79 ± 3 %; weight of thymus gland (thymus gland index), X ± SD (%) ([7]; peptide 0.5 μg/kg/day i.p. 15 days (IFN-γ, IL-2 3×10^5 IU/kg/day)): 0.20 ± 0.06 %; weight of thymus gland (thymus gland index), X ± SD (%) ([7]; peptide 50 μg/kg/day i.p. 15 days (IFN-γ, IL-2 3×10^5 IU/kg/day)): 0.18 ± 0.04 %; weight of thymus gland (thymus gland index), X ± SD (%) [7, 13]: 0.19 ± 0.02 %
